Assays:
Experiment in all cases: relative viability vs DMSO control (72 h) (fraction); higher = more viable cells
SW982 = test system: SW982
Outline: (§1)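 Densities for seeding sarcoma cell lines into 384-well plates were set to give 80–90% confluence. After 24 h, 2.5 µl of serially diluted compound from source plates of 10 mM to 0.0002 mM went in, and plates stayed 72 h at 37 °C in 5% CO2 with 0.1% DMSO vehicle and a 5 µM positive control. Percent growth from ATPLite readings, averaged over up to triplicate wells, served as relative viability, rescaled so 1 means full and 0 means none.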

A204 = test system: A204
Outline: as §1

MES-SA = test system: MES-SA
Outline: as §1

VA-ES-BJ = test system: VA-ES-BJ
Outline: as §1

SK-ES-1 = test system: SK-ES-1
Outline: as §1

Cc1c2oc3c(C)ccc(C(=O)N[C@@H]4C(=O)N[C@H](C(C)C)C(=O)N5CCC[C@H]5C(=O)N(C)CC(=O)N(C)[C@@H](C(C)C)C(=O)O[C@@H]4C)c3nc-2c(C(=O)N[C@@H]2C(=O)N[C@H](C(C)C)C(=O)N3CCC[C@H]3C(=O)N(C)CC(=O)N(C)[C@@H](C(C)C)C(=O)O[C@@H]2C)c(N)c1=O [Dactinomycin]
relative viability
Conditions	A204	MES-SA	SK-ES-1	SW982	VA-ES-BJ
0.00017 µM	1.02	0.9129	1.03	1.06	1.01
0.00051 µM	0.99	0.835	0.976	1.02	0.994
0.00152 µM	0.641	0.354	0.694	0.858	0.94
0.00457 µM	0.393	0.321	0.423	0.563	0.733
0.01372 µM	0.277	0.265	0.251	0.382	0.457
0.04115 µM	0.234	0.0423	0.00443	0.234	0.303
0.1235 µM	0.193	0.0397	-0.00147	0.15	0.151
0.3704 µM	0.201	0.0566	-0.0034	0.167	0.158
1.111 µM	0.169	0.0464	-0.0043	0.147	0.148
3.333 µM	0.161	0.0357	-0.00447	0.142	0.15
10 µM	0.168	0.0424	0.0007	0.147	0.146

C[C@@H]1CN(C(=O)c2ccc(NC(=O)c3cc(O[C@H](C)c4c(Cl)ccc(F)c4Cl)c(N)nn3)cc2)C[C@H](C)N1 [Ensartinib]
relative viability
Conditions	A204	MES-SA	SK-ES-1	SW982	VA-ES-BJ
0.00017 µM	1.069	0.921	0.934	0.966	1.05
0.00051 µM	1.07	0.896	0.966	0.95947	1.02
0.00152 µM	1.06	0.938	0.987	0.986	1.03
0.00457 µM	1.05	0.929	1	0.973	1.03
0.01372 µM	1.05	0.932	0.974	0.97	1.06
0.04115 µM	1.05	0.926	0.972	0.965	1.05
0.1235 µM	1.04	0.961	0.97	0.982	1.02
0.3704 µM	1.06	0.933	0.857	0.855	0.855
1.111 µM	0.98	0.498	0.457	0.513	0.662
3.333 µM	0.806	0.296	0.0368	0.206	0.489
10 µM	0.326	0.1	0.00643	0.009967	0.362

C=CC(=O)N1CCC(CNc2ncnc(N)c2-c2ccc(Oc3ccccc3)cc2)CC1 [Evobrutinib]
relative viability
Conditions	A204	MES-SA	SK-ES-1	SW982	VA-ES-BJ
0.00017 µM	1.1	1	1.12	1.04	1.1
0.00051 µM	1.16	0.9618	1.14	1.09	1.08
0.00152 µM	1.16	0.963	1.1	1.11	1.07
0.00457 µM	1.11	0.9579	1.04	1.07	1.08
0.01372 µM	1.02	0.964	1.04	1.08	1.09
0.04115 µM	1.05	0.956	1.09	1.068	1.043
0.1235 µM	1.07	0.968	1.05	1.086	1.06
0.3704 µM	1.04	0.933	1.06	1.07	1.06
1.111 µM	1.07	0.928	1.03	1.06	1.06
3.333 µM	1.02	0.892	1.01	1.07	1.1
10 µM	0.871	0.792	1.02	1.12	1.1
